From patent publication US6914045B2, “Glycopeptide antibiotics” (Wyeth Holdings Corporation, priority 2001, dated 2005)
Converted amounts (≈) assume the structure as drawn.

Columns and labels:
Experiment in all cases: in vitro antibacterial evaluation, MIC by broth dilution
Format in all cases: cell-based
[1] = system: Escherichia coli; settings: 18 hours at 35° C.
Method: (§1) The minimum inhibitory concentration (MIC), the lowest concentration of the antibiotic which inhibits growth of the test organism, is determined by the broth dilution method using Muller-Hinton II […] (Baltimore Biological Laboratories) following the recommendations of the National Committee for Clinical Laboratory Standards [Methods for dilution antimicrobial susceptibility tests for bacteria that grow aerobically, approved standard M7-A2, National Committee for Clinical Laboratory Standards, Villanova, Pa.].
(§2) An inoculum level of 5×10^5 CFU/mL, and a range of antibiotic concentrations (64-0.06 μg/mL) is used. […] The test organisms include a spectrum of Gram-positive bacteria comprised of Staphylococcus sp., Streptococcus sp. and Enterococcus sp. These organisms include recent clinical isolates that are resistant to methicillin, penicillin and/or vancomycin.

[2] = system: Staphylococcus sp.
Method: (§3) Methods for in vitro Antibacterial Evaluation (Table 1)
as §1, §2

[3] = system: Enterococcus sp.; settings: broth dilution, 18 hours at 35° C.
Method: as §3, §1, §2

[4] = broth dilution, 18 hours at 35° C.
[5] = strain ATCC 29213; broth dilution, 18 hours at 35° C.
[6] = strain GC 1131; broth dilution, 18 hours at 35° C.
[7] = strain GC 4535; broth dilution, 18 hours at 35° C.
[8] = strain GC 4536; broth dilution, 18 hours at 35° C.
[9] = Enterococcus faecalis (ATCC 29212)
[10] = Enterococcus faecalis (GC 4552)

`CCCCCCC(=O)OCC1OC(Oc2ccc(CC3NC(=O)C(C(C)c4ccccc4)NC(=O)CNC(=O)C(CO)NC(=O)C(C(O)C4CNC(=N)N4C4OC(CO)C(O)C(O)C4O)NC(=O)C(C(O)C4CNC(=N)N4)NC3=O)cc2)C(O)C(O)C1OC1OC(CO)C(O)C(O)C1O` (stereo not drawn) [Example 97a, Cyclo[glycyl-β-methylphenylalanyl-O-(6-O-heptanoyl-4-O-hexopyranosylhexopyranosyl)-tyrosyl-3-(2-iniinoimidazolidin-4-yl)seryl-3-(3-hexopyranosyl-2-iminoimidazolidin-4-yl)-serylseryl]] was tested, and the “MIC Escherichia coli (GC 4559)” value [1] was >64 µg/mL, the “MIC Escherichia coli (GC 4560)” value [1] was 1 µg/mL (≈ 0.711 µM) and the “MIC Coagulase Negative Staphylococcus (GC 4537)” value [2, 4] was 4 µg/mL (≈ 2.84 µM). For the same molecule, the “MIC Coagulase Negative Staphylococcus (GC 4538)” value [2, 4] was 2 µg/mL (≈ 1.42 µM), the “MIC Coagulase Negative Staphylococcus (GC 4547)” value [2, 4] was 2 µg/mL (≈ 1.42 µM) and the “MIC Coagulase Negative Staphylococcus (GC 4537)” value ([2]; broth dilution, 18 hours at 35° C.; strain GC 4537) was 4 µg/mL (≈ 2.84 µM). The “MIC Coagulase Negative Staphylococcus (GC 4538)” value ([2]; broth dilution, 18 hours at 35° C.; strain GC 4538) was 2 µg/mL (≈ 1.42 µM), the “MIC Coagulase Negative Staphylococcus (GC 4547)” value ([2]; broth dilution, 18 hours at 35° C.; strain GC 4547) was 2 µg/mL (≈ 1.42 µM) and the “MIC Staphylococcus aureus (ATCC 29213)” value [2, 5] was 1 µg/mL (≈ 0.711 µM). The “MIC Staphylococcus aureus (GC 1131)” value [2, 6] was 2 µg/mL (≈ 1.42 µM), the “MIC Staphylococcus aureus (GC 4535)” value [2, 7] was 2 µg/mL (≈ 1.42 µM) and the “MIC Staphylococcus aureus-SMITH (GC 4536)” value [2, 8] was 0.5 µg/mL (≈ 0.355 µM). For the same molecule, the “MIC Enterococcus faecalis (ATCC 29212)” value [3, 9] was 8 µg/mL (≈ 5.68 µM), the “MIC Enterococcus faecalis (GC 2242)” value ([3]; Enterococcus faecalis (GC 2242)) was 4 µg/mL (≈ 2.84 µM) and the “MIC Enterococcus faecalis (GC 4552)” value [3, 10] was 16 µg/mL (≈ 11.4 µM). For the same molecule, the “MIC Enterococcus faecalis (ATCC 29212)” value [3] was 8 µg/mL (≈ 5.68 µM), the “MIC Enterococcus faecalis (GC 2242)” value [3] was 4 µg/mL (≈ 2.84 µM) and the “MIC Enterococcus faecalis (GC 4552)” value [3] was 16 µg/mL (≈ 11.4 µM).
For `CCCCCC(=O)OCC1OC(Oc2ccc(CC3NC(=O)C(C(C)c4ccccc4)NC(=O)CNC(=O)C(CO)NC(=O)C(C(O)C4CNC(=N)N4C4OC(CO)C(O)C(O)C4O)NC(=O)C(C(O)C4CNC(=N)N4)NC3=O)cc2)C(O)C(O)C1OC1OC(CO)C(O)C(O)C1O` (stereo not drawn) [Example 95a, Cyclo[glycyl-β-methylphenylalanyl-O-(6-O-hexanoyl-4-O-hexopranosylhexopyranosyl)-tyrosyl-3-(2-iminoimidazolidin-4-yl)sery-3-(3-hexopyranosyl-2-iminoimidazolidin-4-yl)-serylseryl]], the “MIC Escherichia coli (GC 4559)” value [1] was >64 µg/mL, the “MIC Escherichia coli (GC 4560)” value [1] was 2 µg/mL (≈ 1.44 µM) and the “MIC Coagulase Negative Staphylococcus (GC 4537)” value [2, 4] was 8 µg/mL (≈ 5.74 µM). For the same molecule, the “MIC Coagulase Negative Staphylococcus (GC 4538)” value [2, 4] was 4 µg/mL (≈ 2.87 µM), the “MIC Coagulase Negative Staphylococcus (GC 4547)” value [2, 4] was 4 µg/mL (≈ 2.87 µM) and the “MIC Staphylococcus aureus (ATCC 29213)” value [2, 5] was 4 µg/mL (≈ 2.87 µM). For the same molecule, the “MIC Staphylococcus aureus (GC 1131)” value [2, 6] was 4 µg/mL (≈ 2.87 µM), the “MIC Staphylococcus aureus (GC 4535)” value [2, 7] was 8 µg/mL (≈ 5.74 µM) and the “MIC Staphylococcus aureus-SMITH (GC 4536)” value [2, 8] was 4 µg/mL (≈ 2.87 µM). The “MIC Coagulase Negative Staphylococcus (GC 4537)” value ([2]; strain GC 4537; broth dilution, 18 hours at 35° C.) was 8 µg/mL (≈ 5.74 µM), the “MIC Coagulase Negative Staphylococcus (GC 4538)” value ([2]; strain GC 4538; broth dilution, 18 hours at 35° C.) was 4 µg/mL (≈ 2.87 µM) and the “MIC Coagulase Negative Staphylococcus (GC 4547)” value ([2]; strain GC 4547; broth dilution, 18 hours at 35° C.) was 4 µg/mL (≈ 2.87 µM). For the same molecule, the “MIC Enterococcus faecalis (ATCC 29212)” value [3, 9] was 32 µg/mL (≈ 23 µM), the “MIC Enterococcus faecalis (GC 4552)” value [3, 10] was 32 µg/mL (≈ 23 µM) and the “MIC Enterococcus faecalis (ATCC 29212)” value [3] was 32 µg/mL (≈ 23 µM). The “MIC Enterococcus faecalis (GC 2242)” value [3] was 16 µg/mL (≈ 11.5 µM), the “MIC Enterococcus faecalis (GC 4552)” value [3] was 32 µg/mL (≈ 23 µM) and the “MIC Enterococcus faecalis (GC 2242)” value ([3]; strain GC 2242) was 16 µg/mL (≈ 11.5 µM).
